Measurements from patent US12473295B2, “Substituted straight chain spiro derivatives” (Janssen Pharmaceutica NV, priority 2019, dated 2025).
Counter-ions that a name gives are not always drawn.

Key:
hERG potassium channel = hERG potassium channel (Homo sapiens (Human), UniProt Q12809); assay: Effect on membrane potassium current IKr in hERG transfected CHO cells, Protocol 1 (QPatch); assay type: cell-based
Summary of the method: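 Whole-cell automated patch clamp on CHO cells stably expressing hERG, held at −80 mV; the value is the tail current at −40 mV after a 2 s step to +60 mV, at pH 7.4 bath and pH 7.2 pipette. After 0.3% DMSO control, compound was applied at 3×10^−7 M, 3×10^−6 M, 10^−5 M and 3×10^−5 M, 5 min each. IC50 comes from a non-linear least-squares fit of block versus vehicle.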

iCell Cardiomyocytes2 = assay: Ca2+-fluorescence assay in human pluripotent stem cell-derived cardiomyocytes (CTCM human), iCell Cardiomyocytes2; assay type: cell-based; set-up: key: Green: No concern; Yellow: Low concern; Red: High concern; Black: Very high concern due to arrhythmic events; details: 30 min
Protocol: 7) Cardio-Electrophysiological Effects of the Testing Compounds in Synchronously Beating Human Pluripotent Stem Cell-Derived Cardiomyocytes (hSC-CMs) Using a Ca^2+-Fluorescence Assay (CTCM Human)
Compounds were tested in the 96-well plates
Compounds were tested at 0.1 μM, 0.2 μM, 0.5 μM, 1 μM, 2.5 μM and 5 μM (n=4 per dose) on Cor.4U 9-Cardiomyocytes or on iCell® Cardiomyocytes2
Alternatively, compounds were tested at 0.1 μM, 0.3 μM; 1 μM, 3 μM, 10 μM and 30 μM (n=4 per dose) mostly on iCell® Cardiomyocytes2
Dimethylsulfoxide (DMSO). The solutions of the compound in DMSO or its solvent (final concentration of 0.1% DMSO; n=8)
Preparation of Test Article and Controls
Tested compounds were dissolved in DMSO at 1000-fold the intended concentrations. A compound “mother-plate” was made, containing the test compounds and positive and negative controls at 1000-fold the final concentrations. At the experiment day, these stock solutions were diluted with Tyrode (Sigma), supplemented with 10 mM HEPES (Gibco), to 2-fold the intended concentration (in round bottom compound plates). Final DMSO concentration in test solutions and vehicle control was 0.1%.
Second line hSC derived cardiomyocyte called iCell®, Cardiomyocytes2 were purchased from FUJIFILM Cellular Dynamics (USA). The experiments with test drugs are carried out 5 to 7 days after plating the cells onto the plate to have a living, beating monolayer of hiPSC-derived cardiomyocytes. The beating monolayer in 96-well-plates are normally taken from 2 Vials of frozen iCell) Cardiomyocytes2 (≈5 million cells/vial), which will be plated onto […] 96-well plates (≈50K/well).
Before Start of Experiment
At least one hour before the start of the experiments the normal cell medium was replaced with Tyrode solution with Calcium dye (see below).
Cal 520 dye (AAT Bioquest) was dissolved in 11 ml of Tyrode supplemented with 10 mM HEPES and warmed up to 37° C. before adding to the cells.
35 μl cell culture medium was removed from each well and replaced with 35 μl of pre-warmed Cal 520 dye solution and cell plate was incubated for 45 min at 37° C./5% CO2. Cells were incubated for 5 min at 37° C.
Spontaneous electrical activity is recorded, using Cal520™ (AAT Bioquest) calcium fluorescence-dye signaling. This dye integrates the total intracellular calcium activity over the whole well. A bottle of Cal520 dye (50 μg, MW: 1103/mol) is dissolved with 50 μl DMSO as a stock solution of 0.9 mM. 50 μL of the stock solution of the dye was added to 10 ml Tryodes solution to have dye concentration of 4.5 μM. Subsequently, 35 μl of this dye solution was added into each well, to have a final dye concentration of 1.58 μM. The current dye protocol on this CTCM human assay was established recently (Ivan Kopljar et al, Journal of Pharmacological and toxicological methods 2018. 91: 80-86; Lu et al., Tox Sci 2019. 170 (2): 345-356).
Fluorescent signals (Ca^2+ transient morphology) were measured using the Functional Drug Screen System (FDSS/μCell; Hamamatsu, Japan) and the recordings were subsequently analyzed off-line, using appropriate software e.g. Notocord.
The cell plate was loaded into the FDSS/μCell for a test run: Ca^2+ transients were measured for 4 minutes to check for synchronous beating of the cardiomyocytes in each well. All 96 wells were measured simultaneously (sampling interval: 0.06 s, short exposure time: 10 ms; excitation wavelength 480 nm; emission wavelength 540 nm; FDSS/μCell warmed to 37° C.).
During the compound addition step, 100 μl of the respective double-concentrated test solutions was pipetted into each well simultaneously.
Data were analyzed off-line using appropriate software e.g. Notocord-Hem (version 4.3).
The following parameters of the Ca^2′ transient morphology were measured: • beat rate (BR) • amplitude of the Ca^2+ transient (Amp), • CTD90: Ca^2+ transient duration at 90% (time to 90% of the initial base value). […]

hERG potassium channel, sequence (Q12809 whole entry): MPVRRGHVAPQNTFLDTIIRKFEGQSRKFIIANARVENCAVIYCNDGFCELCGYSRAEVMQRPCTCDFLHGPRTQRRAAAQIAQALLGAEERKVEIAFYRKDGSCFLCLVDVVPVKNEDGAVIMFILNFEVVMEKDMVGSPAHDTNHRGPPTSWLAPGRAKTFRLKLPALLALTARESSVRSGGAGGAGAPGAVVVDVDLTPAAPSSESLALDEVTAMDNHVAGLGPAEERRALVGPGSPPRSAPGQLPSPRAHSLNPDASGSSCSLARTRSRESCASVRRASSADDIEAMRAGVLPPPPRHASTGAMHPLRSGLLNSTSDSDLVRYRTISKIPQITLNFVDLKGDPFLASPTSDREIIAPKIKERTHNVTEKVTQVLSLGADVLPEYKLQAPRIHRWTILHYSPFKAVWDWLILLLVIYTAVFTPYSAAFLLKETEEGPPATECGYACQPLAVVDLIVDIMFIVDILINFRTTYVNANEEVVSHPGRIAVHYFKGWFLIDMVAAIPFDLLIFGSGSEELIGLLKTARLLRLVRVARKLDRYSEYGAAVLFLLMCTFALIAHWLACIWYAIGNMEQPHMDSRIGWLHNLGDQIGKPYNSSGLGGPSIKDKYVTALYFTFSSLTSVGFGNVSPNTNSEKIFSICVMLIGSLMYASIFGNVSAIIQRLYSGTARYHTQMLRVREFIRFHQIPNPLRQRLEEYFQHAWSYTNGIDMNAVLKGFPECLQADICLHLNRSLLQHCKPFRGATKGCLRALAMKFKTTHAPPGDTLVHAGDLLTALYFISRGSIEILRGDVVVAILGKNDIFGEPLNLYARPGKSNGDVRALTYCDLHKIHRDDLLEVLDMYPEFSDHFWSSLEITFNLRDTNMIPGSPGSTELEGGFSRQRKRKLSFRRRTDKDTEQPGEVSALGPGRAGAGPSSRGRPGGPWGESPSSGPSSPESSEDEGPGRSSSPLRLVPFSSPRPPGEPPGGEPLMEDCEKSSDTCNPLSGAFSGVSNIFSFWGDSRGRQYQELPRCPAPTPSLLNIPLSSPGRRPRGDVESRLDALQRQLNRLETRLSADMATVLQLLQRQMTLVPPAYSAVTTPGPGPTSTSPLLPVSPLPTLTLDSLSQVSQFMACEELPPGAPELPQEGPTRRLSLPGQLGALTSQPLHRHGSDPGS

| SMILES | IC50 (hERG potassium channel) [µM] | Color @ 0.1 μM (hazard score) (iCell Cardiomyocytes2; iCell Cardiomyocytes2, 0.1 μM) | Color @ 0.2 μM (hazard score) (iCell Cardiomyocytes2; iCell Cardiomyocytes2, 0.2 μM) | Color @ 0.5 μM (hazard score) (iCell Cardiomyocytes2; iCell Cardiomyocytes2, 0.5 μM) | Color @ 1 μM (hazard score) (iCell Cardiomyocytes2; iCell Cardiomyocytes2, 1 μM) | Color @ 2.5 μM (hazard score) (iCell Cardiomyocytes2; iCell Cardiomyocytes2, 2.5 μM) | Color @ 5 μM (hazard score) (iCell Cardiomyocytes2; iCell Cardiomyocytes2, 5 μM) |
| --- | --- | --- | --- | --- | --- | --- | --- |
| CC(C)[C@@H](CCC(C)(C)N)N1CC2(CCN(c3ncnnc3Oc3ccc(F)cc3-c3cncnc3C3CC3)C2)C1 (single isomer, unassigned) [Compound 37, (*R)-5-(6-(6-(2-(4-cyclopropylpyrimidin-5-yl)-4-fluorophenoxy)-1,2,4-triazin-5-yl)-2,6-diazaspiro[3.4]octan-2-yl)-2,6-dimethylheptan-2-amine] | > 30.2 | – | – | – | – | – | – |
| CCN(C(=O)c1cc(F)ccc1Oc1nncnc1N1CCC2(C1)CN([C@H](CCCN)C(C)C)C2)C(C)C [Compound 1, (R)-2-((5-(2-(6-amino-2-methylhexan-3-yl)-2,6-diazaspiro[3.4]octan-6-yl)-1,2,4-triazin-6-yl)oxy)-N-ethyl-5-fluoro-N-isopropylbenzamide formate] | > 30.2 | – | – | – | – | – | – |
| CCN(C(=O)c1cc(F)ccc1Oc1nncnc1N1CCC2(C1)CN([C@H](CCCN(C)CCC(=O)N(C)C)C(C)C)C2)C(C)C [Compound 246, (R)-2-((5-(2-(6-((3-(dimethylamino)-3-oxopropyl)(methyl)amino)-2-methylhexan-3-yl)-2,6-diazaspiro[3.4]octan-6-yl)-1,2,4-triazin-6-yl)oxy)-N-ethyl-5-fluoro-N-isopropylbenzamide formate] | – | Green | Green | Green | Green | Green | Green |
